Data set [1] concerns Mus musculus. Briefly: Antinociceptive activity in capsaicin-induced nociception pain Kunming mouse model assessed as reduction in time spent in paw licking at 60 mg/kg, po pretreated for 30 mins followed by capsaicin challenge measured for 5 mins post capsaicin challenge. It counts as functional, organism-based.
Another data set concerns MCF7. Briefly: Antiproliferative activity against human MCF7 cells after 48 hrs by MTT assay. Type of data set: functional, cell-based. The conditions noted are these: MCF7, 48 h.
In data set [2] the target is Transient receptor potential cation channel subfamily V member 1 (Homo sapiens) (UniProt Q8NER1). Briefly: Agonist activity at human TRPV1 expressed in HEK293 cells assessed as increase in calcium influx by measuring ratio of 340/380 nm excitatory wavelength at 10 uM treated for 2 mins by Fura-2AM dye-based fluorescence assay. It counts as cell-based.
The next data set concerns HeLa. Kind of data set: Antiproliferative activity against human HeLa cells after 48 hrs by MTT assay. It counts as functional, cell-based. Background: Formazan colour is commonly taken as a measure of viable cells.
Data set [3] has as its system Mus musculus. Briefly: Antinociceptive activity in Kunming mouse model assessed as inhibition of acetic acid-induced writhes at 60 mg/kg, po pretreated for 30 mins followed by acetic acid challenge measured for 15 mins post acetic acid challenge. It counts as functional, organism-based.
In the next data set the test system is K562. Kind of data set: Antiproliferative activity against human K562 cells after 48 hrs by MTT assay. Type of data set: functional, cell-based. To be noted: K562, 48 h.
Data set [4] concerns Mus musculus. Kind of data set: Antinociceptive activity in Kunming mouse model of thermal-induced nociception assessed as increase in latency to tail withdrawal at 60 mg/kg, po by tail flick test. It counts as functional, organism-based. Background: In hot-plate and tail-flick tests a longer latency is read as antinociception.
In data set [5] the test system is Mus musculus. Kind of data set: Ulcerogenic activity in Kunming mouse assessed as lesion in stomach at 30 mg/kg, po qd for 6 days measured on day 7 by microscopic analysis. Type of data set: toxicity, organism-based. The conditions noted are these: in vivo, 144 h.
Data set [6] can be described thus: Acute toxicity in po dosed CD rat measured for 7 days. To be noted: in vivo. It counts as organism-based.

Molecules are shown by their SMILES. Calls of active or inactive are those of the source. The calls are words filed in the database; no cut-off is given here.

Broadly, the IC50 is the point on the concentration scale where inhibition reaches its midpoint. What is called LD50 is the dose expected to kill half of the subjects tested.

Chain of Transient receptor potential cation channel subfamily V member 1 (Homo sapiens) (Q8NER1 whole entry): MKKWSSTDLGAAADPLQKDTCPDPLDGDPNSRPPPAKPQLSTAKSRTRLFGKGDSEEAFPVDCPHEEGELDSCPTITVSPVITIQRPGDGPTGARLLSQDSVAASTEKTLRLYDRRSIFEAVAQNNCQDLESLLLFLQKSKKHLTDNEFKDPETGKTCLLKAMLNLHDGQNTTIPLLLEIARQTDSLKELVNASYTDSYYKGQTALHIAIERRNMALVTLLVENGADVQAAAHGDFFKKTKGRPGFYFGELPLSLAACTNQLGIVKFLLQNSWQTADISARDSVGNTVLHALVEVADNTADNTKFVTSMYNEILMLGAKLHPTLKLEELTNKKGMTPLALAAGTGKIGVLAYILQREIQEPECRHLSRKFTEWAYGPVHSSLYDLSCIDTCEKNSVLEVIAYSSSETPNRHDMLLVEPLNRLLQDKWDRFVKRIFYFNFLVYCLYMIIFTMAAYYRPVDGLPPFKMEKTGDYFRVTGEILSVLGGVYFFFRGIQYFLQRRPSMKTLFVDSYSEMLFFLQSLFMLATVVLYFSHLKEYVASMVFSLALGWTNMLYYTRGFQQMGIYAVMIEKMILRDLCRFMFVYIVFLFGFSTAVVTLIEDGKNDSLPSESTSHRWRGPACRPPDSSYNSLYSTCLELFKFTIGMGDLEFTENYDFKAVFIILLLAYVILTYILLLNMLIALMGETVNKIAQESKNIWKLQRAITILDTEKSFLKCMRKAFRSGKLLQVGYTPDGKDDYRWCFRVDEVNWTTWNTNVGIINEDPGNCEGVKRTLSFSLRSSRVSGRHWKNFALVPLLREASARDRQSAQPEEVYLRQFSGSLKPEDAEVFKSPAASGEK

As to `COc1cc(CNC(=O)CCCCCCC(C)C)ccc1OC(=O)c1ccc(C(N)=S)cc1`, in the data set with Mus musculus [1], the result was Active. Further, the IC50 with MCF7, in the data set with HeLa and with K562 was over 50 µM throughout. Besides, the Ratio in data set [2] turned out to be 1.69. In addition, the inhibition entry in the data set on Mus musculus [3] is “Active”.

Take `CC(C)(C)c1ccc(NC(=O)N2CCN(c3ncccc3Cl)CC2)cc1`: the outcome with Mus musculus [4] was Active.

For the compound `COc1cc(CNC(=O)CCCC/C=C/C(C)C)ccc1OC(=O)CCC(=O)Oc1ccc(-c2cc(=S)ss2)cc1`, the result in the data set on Mus musculus [1] and in the data set with Mus musculus [4] was Active. Also, the values for the IC50 with MCF7, in the data set on HeLa and with K562 were 2.12 µM, 4.25 µM and 4.45 µM, respectively. Also, in data set [2], the Ratio was determined as 2.1. In the data set with Mus musculus [5], the Activity result was “Non-Toxic”. The inhibition entry in the data set on Mus musculus [3] was “Active”.

As to `COc1cc(CNC(=O)CCCC/C=C/C(C)C)ccc1OCCCCCOc1ccc(-c2cc(=S)ss2)cc1`, the outcome in the data set on Mus musculus [1] was Active. For the same compound, the 50% inhibitory concentration (IC50) in the data set on MCF7, in the data set with HeLa and in the data set on K562 was over 50 µM in each case. In addition, the Ratio in [2] was 1.71. The inhibition result in the data set with Mus musculus [3] was “Active”.

Turning to `COc1cc(CNC(=O)CCCC/C=C/C(C)C)ccc1OCCCCOc1ccc(-c2cc(=S)ss2)cc1`, the outcome with Mus musculus [1] and in the data set on Mus musculus [4] was Active. Also, the half-inhibitory concentration (IC50) in the data set with MCF7 is 36.4 µM; with HeLa it was 47.1 µM; in the data set with K562, over 50 µM. The Ratio in data set [2] amounted to 1.96. In addition, the Activity entry in the data set on Mus musculus [5] was “Non-Toxic”. For the same compound, the inhibition entry with Mus musculus [3] was “Active”.

For `COc1cc(CNC(=O)CCCC/C=C/C(C)C)ccc1OC(=O)CCC(=O)Oc1ccc(C(N)=S)cc1`, the result with Mus musculus [1] was Active. The IC50 in the data set on MCF7, in the data set on HeLa and with K562 was over 50 µM in each case. For the same compound, the Ratio in data set [2] turned out to be 1.94. Besides, the Activity entry with Mus musculus [5] was “Non-Toxic”. In the data set on Mus musculus [3], the inhibition entry is “Active”.

In the case of `COc1cc(CNC(=O)CCCCCCC(C)C)ccc1OCCCCCOc1ccc(C(N)=S)cc1`, the result with Mus musculus [1] was Active. The IC50 in the data set on MCF7 was 49.3 µM; with HeLa it was over 50 µM; in the data set on K562, over 50 µM. Also, the Ratio in data set [2] stood at 1.76. Also, in the data set on Mus musculus [3], the inhibition result is “Active”.

Turning to `COc1cc(CNC(=O)CCCCCCC(C)C)ccc1OC(=O)CCC(=O)Oc1ccc(C(N)=S)cc1`, the outcome in the data set on Mus musculus [1] was Active. Further, in data set [2], the Ratio amounted to 1.87. The compound further displayed an IC50 in the data set on HeLa of over 50 µM. Besides, the inhibition result in the data set on Mus musculus [3] is “Active”.

In the case of `COc1cc(CNC(=O)CCCC/C=C/C(C)C)ccc1OCCCCOc1ccc(C(N)=S)cc1`, the result in the data set on Mus musculus [1] was Active. The half-maximal inhibitory concentration (IC50) in the data set with MCF7 is 49.8 µM; in the data set on HeLa, over 50 µM; in the data set on K562, over 50 µM. The Ratio in [2] amounted to 1.7. The inhibition entry in the data set on Mus musculus [3] was “Active”.

`COc1cc(CNC(=O)CCCCCCC(C)C)ccc1OC(=O)CCC(=O)Oc1ccc(-c2cc(=S)ss2)cc1`: in the data set on Mus musculus [1], the outcome was Active. Also, the IC50 in the data set on MCF7 stood at 2.56 µM; in the data set on HeLa, 5.53 µM; in the data set on K562, 5.93 µM. The Ratio in [2] turned out to be 1.96. For the same compound, in the data set with Mus musculus [3], the inhibition entry was “Active”.

On to `COc1cc(CNC(=O)CCCC/C=C/C(C)C)ccc1OC(=O)c1ccc(C(N)=S)cc1`, for which, in the data set on Mus musculus [1], the outcome was Active. Besides, the IC50 is 39.4 µM with MCF7, 39.6 µM in the data set on HeLa and over 50 µM in the data set on K562. Also, the Ratio in [2] came out at 1.77. Moreover, in the data set with Mus musculus [5], the Activity entry is “Non-Toxic”. Moreover, the inhibition result in the data set on Mus musculus [3] was “Active”.

In the case of `COc1cc(CNC(=O)CCCCCCC(C)C)ccc1OCCCCCOc1ccc(-c2cc(=S)ss2)cc1`, the result with Mus musculus [1] was Active. Moreover, the 50% inhibitory concentration (IC50) is 48.6 µM in the data set with MCF7, over 50 µM in the data set on HeLa and over 50 µM in the data set with K562. The Ratio in data set [2] worked out at 1.69. Also, the inhibition entry in the data set with Mus musculus [3] was “Active”.

With `COc1cc(CNC(=O)CCCCCCC(C)C)ccc1OCCCCOc1ccc(C(N)=S)cc1`, the outcome in the data set with Mus musculus [1] was Active. For the same compound, the figures for the IC50 in the data set on MCF7, with HeLa and in the data set on K562 were 4.99 µM, 40.7 µM and over 50 µM, respectively. Further, the Ratio in data set [2] is 1.59. In addition, the inhibition entry with Mus musculus [3] is “Active”.

As to `COc1cccc2c1C(=O)c1c(O)c3c(c(O)c1C2=O)C[C@@](O)(C(=O)CO)C[C@@H]3O[C@H]1C[C@H](N)[C@H](O)[C@H](C)O1` [DOXORUBICIN], the 50% inhibitory concentration (IC50) was 0.451 µM in the data set with HeLa and 1.51 µM with K562.

Turning to `COc1cc(CNC(=O)CCCCCCC(C)C)ccc1OCCCCOc1ccc(-c2cc(=S)ss2)cc1`, the result in the data set on Mus musculus [1] was Active. Further, the IC50 in the data set with MCF7 was 49.5 µM; in the data set with HeLa, 44.6 µM; in the data set with K562, over 50 µM. For the same compound, the Ratio in data set [2] turned out to be 1.69. For the same compound, the inhibition entry in the data set with Mus musculus [3] was “Active”.

For the compound `COc1cc(CNC(=O)CCCC/C=C/C(C)C)ccc1OCCCCCOc1ccc(C(N)=S)cc1`, the result in the data set with Mus musculus [1] was Active. For the same compound, the IC50 was 17.2 µM in the data set on MCF7, 46.4 µM in the data set with HeLa and over 50 µM with K562. Further, the Ratio in data set [2] turned out to be 1.87. Also, the inhibition result in the data set with Mus musculus [3] is “Active”.

In turn, `COc1cc(CNC(=O)CCCC/C=C/C(C)C)ccc1O` [CAPSAICIN] returned an LD50 at 168 h in [6] of 161 mg/kg. Moreover, the half-inhibitory concentration (IC50) was 50 µM with MCF7, over 50 µM in the data set on HeLa and 49.4 µM in the data set with K562. In addition, in the data set on Mus musculus [5], the Activity entry is recorded as “Toxic”.

In the case of `COc1cc(CNC(=O)CCCCCCC(C)C)ccc1O` [DIHYDROCAPSAICIN], the half-inhibitory concentration (IC50) with MCF7, in the data set on HeLa and with K562 was over 50 µM each time. For the same compound, the Ratio in [2] worked out at 2.

Source of the values: ChEMBL document CHEMBL4118141, “Design, synthesis and biological evaluation of novel hydrogen sulfide releasing capsaicin derivatives” (Bioorg Med Chem, 2018).
